# From patent publication US4734280A, “Treatment or prevention of PAF Acether-induced maladies” (priority 1984, dated 1988)
# Legend:
# New-Zealand rabbits = assay: PAF Acether-induced shock in the rabbit; assay type: in vivo; conditions: for Extravasation (O.D.): 2 mg/kg IV perfusion, 30 mn, optical density at 590 nm, average of 10 animals
# Procedure: Treatment: Tested compounds (Gingkolides A, B and C) or vehicle were perfused in the ear vein in 45 ml NaCl 0.9% for 1 hour before PAF Acether injection. Vehicle consisted of 1.5 ml of propylene glycol completed to 45 ml by isotonic NaCl buffer; Ginkgolides were administered at the dose of 2 mg/kg IV; the figures reported in the following table are the average values of the 10 animals of each batch.
# human washed platelets = assay: Inhibition of PAF Acether-induced PA, human washed platelets; assay type: cell-based; conditions: Platelet, average values of 5 assays
# Text: The inhibition of PAF Acether-induced PA was also experimented using human washed platelets on Ginkgolides A, B, and C.
# Best figure for IC50 was obtained with Ginkgolide B (GK B) (average values of 5 assays) with 2.5 10^-5 M.
# Sprague-Dowley rats = assay: Cutaneous vascular hyperpermeability induced by PAF Acether in the rat; assay type: in vivo; conditions: 1 mg/kg IV
# Procedure: Method: Intradermal injection of 25 ng of PAF Acether in the dorsal region of the rat with simultaneous IV injection of Evans blue dye (60 mg/kg/5 ml) induces vascular hyperpermeability and wheals formation. (for details see Basran GS, Page CP, Paul W and Morley J-Cromoglycate inhibits responses to platelet-activating factor (PAF Acether) in man: an alternative mode of action for DSCG in asthma-Eur. J. Pharma. (1983) 86 143-144).
# These wheals were measured (surface in mm^2) at the inner side of the skin 30 mn after the injections and were taken off, put in 4 ml of formamide, incubated at 65° C. during 24 h in order to extract the dye and measure their coloration (optical density at 620 nm).
# Groups of 6 Sprague-Dowley rats weighing 200 g were used and each rat received intradermal injections in two sites of the back. The experiment was performed in comparison with a reference compound, D 600 (methoxy verapamil), a calcium-blocker agent.
# Treatments: Tested compounds were administered by IV route injected once simultaneously with the dye.
# [1] = tested on: guinea-pig isolated heart; assay: Isolated Langendorff heart, PAF Acether effect; conditions: PAF Acether 100 pM
# Text: The deletereous effect of PAF Acether on Isolated Langendorff heart has been previously described by J. BENVENISTE, C. BOULLET, C. BRINK and C. LABAT, Brit. J. Pharmacol, The action of PAF Acether on guinea-pig isolated heart preparation, 80: 81-3 (1983).
# PAF Acether (100 pM) induced a decline in contractile strength (-30%) and a decrease of coronary flow (-50%).
# This effect was dose-dependent (disappearance of protective activity when dose ≤10^-7 M).
# [2] = tested on: guinea-pig mesenteric artery; assay: Opto-electronic follow-up of PAF Acether-induced thrombus, guinea-pig mesenteric artery; assay type: in vivo
# Text: In this experimental study, 20 guinea-pigs were used. […] Briefly summarized, this method consists in the dissection over a distance of 2 to 3 mm of a branch of the mesenteric artery following gently extraction of a loop of small intestine. By transillumination, the image of this arterial segment is projected onto a set of 30 light-depending resistances (LDR) arranged in two columns of 15 elements each. An LDR element has the property to change its internal resistance as a function of a variation of light intensity. Each LDR is connected into its own Wheatstone bridge, and the changes in light intensity due to thrombus formation will be recorded as variations in electrical potentials and registered as such via a multiplexing device.
# In the present investigation, several discriminating parameters are recorded: (a) the t1 interval or the lag period (this is the time interval between the beginning of the PAF Acether superfusion and the first signs of thrombus formation; (b) the td interval is the duration of the thrombotic phenomenon; (c) the O(t) curve indicates the number of LDR elements covered by the thrombus image; (d) the D(t) curve represents during each 30×1/9×10^-2 sec interval the greatest potential deviation on one of the LDR elements covered by the thrombus image; (e) the T(t) curve represents the summation of the potentials registered on the LDR elements during a time interval of 30×1/9×10^-2 sec the TTV(t) curve results from the integration of the T(t) values in function of time; (f) mD, mT, and mO correspond to the maximal values registered on, respectively, the D(t), T(t), and O(t) curves; (g) TTV is the maximal value of the TTV(t) curve, whereas TVM is the value of this curve up to the point where mT is reached.
# In a first series of experiments (10 animals) the effect of local superfusion with PAF Acether (10^-4 M) is investigated.
# In a second series of experiments (10 animals) the effects of Ginkgolide B and of kadsurenone have been compared preventively and curatively.
# [3] = 2 mg/kg IV, PAF Acether 2 and 4 nmol/kg, 10 animals per batch
structure (smiles),measurement,setting,value
CC1C(=O)OC2C(O)C34C5CC(C(C)(C)C)C36C(OC(=O)C6O)OC4(C(=O)O5)C12O (stereo not shown) [Ginkgolide B],Extravasation (O.D.),New-Zealand rabbits; PAF Acether 2 nmol/kg,0.827 O.D.
same,Extravasation (O.D.),New-Zealand rabbits; PAF Acether 4 nmol/kg,0.880 O.D.
same,Behaviour: behavioural modifications,New-Zealand rabbits; [3],No behavioural
same,Behaviour: deaths,New-Zealand rabbits; [3],No death
same,IC50,human washed platelets,25 µM
same,"PAF Acether induced wheal, Surface","Sprague-Dowley rats; PAF Acether 25 ng intradermal, 30 mn, p < 0.001",58.5 mm^2
same,"PAF Acether induced wheal, Coloration OD","Sprague-Dowley rats; optical density at 620 nm, p < 0.001",0.628 OD
same,"PAF Acether induced wheal, Coloration % decrease",Sprague-Dowley rats; vs control,-45%
same,"PAF Acether induced wheal, Surface % decrease",Sprague-Dowley rats; vs control,-43%
same,inhibition of PAF Acether-induced decline in contractile strength and decrease of coronary flow,[1]; 2.10^-4 M,totally inhibited
same,dose at which protective activity disappears,[1],≤ 10^-7 M
same,thrombus formation when superfused with PAF Acether (preventive),[2]; PAF Acether superfusion,no thrombus appeared
same,time for disappearance of pre-formed thrombus (curative),[2]; PAF Acether-induced thrombus,2.30 min
